Laboratory results: patent US9695178B2, “6-(2-pyridyl)-7,8-dihydro-5H-pyrido[4,3-D]pyrimidine analogs as hedgehog pathway signaling inhibitors and therapeutic applications thereof” (Suzhou Yunxuan Yiyao Keji Youxian Gongsi, priority 2013, dated 2017)

Biological target: Smo (Homo sapiens, UniProt Q99835)
Assay: Bodipy-Cyclopamine Binding Assay (confirmation assay), Hek293-SMO cells
Conditions: not given

Chain of Smo (Q99835 28-787): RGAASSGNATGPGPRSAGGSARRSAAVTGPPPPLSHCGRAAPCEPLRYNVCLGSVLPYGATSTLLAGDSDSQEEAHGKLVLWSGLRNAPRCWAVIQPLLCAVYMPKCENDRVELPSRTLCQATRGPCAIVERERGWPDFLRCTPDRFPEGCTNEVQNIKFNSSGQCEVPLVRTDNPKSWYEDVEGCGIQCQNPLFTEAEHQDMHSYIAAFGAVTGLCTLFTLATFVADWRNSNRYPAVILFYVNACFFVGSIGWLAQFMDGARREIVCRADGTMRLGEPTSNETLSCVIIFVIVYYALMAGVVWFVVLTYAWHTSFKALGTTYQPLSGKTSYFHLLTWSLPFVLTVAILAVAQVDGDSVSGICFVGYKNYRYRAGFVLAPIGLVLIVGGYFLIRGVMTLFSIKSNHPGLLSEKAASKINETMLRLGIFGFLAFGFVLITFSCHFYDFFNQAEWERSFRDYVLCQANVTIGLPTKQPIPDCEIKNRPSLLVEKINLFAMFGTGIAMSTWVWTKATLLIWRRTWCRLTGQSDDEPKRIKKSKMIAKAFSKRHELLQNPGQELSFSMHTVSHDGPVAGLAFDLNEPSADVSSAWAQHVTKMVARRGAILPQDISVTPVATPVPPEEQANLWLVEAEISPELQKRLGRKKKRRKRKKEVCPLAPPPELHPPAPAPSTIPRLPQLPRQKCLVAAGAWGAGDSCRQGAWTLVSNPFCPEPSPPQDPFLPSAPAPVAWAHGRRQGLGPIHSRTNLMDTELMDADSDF

Row | IC50 [nM] | Structure (SMILES)
1 | 1260 | CNC(=O)c1cn2c(n1)CN(c1cc(-c3ncc(C)cc3C)c(Cl)cn1)CC2 [Compound A-6, 7-(5′-chloro-3,5-dimethyl-2,4′-bipyridin-2′-yl)-N-methyl-5,6,7,8-tetrahydro-imidazo-[1,2-a]pyrazine-2-carboxamide]
2 | 84.1 | Cc1cnc(-c2cc(N3CCc4nc(N5CCC(O)CC5)ncc4C3=O)ncc2Cl)c(C)c1 [Compound A-97, 6-(5′-chloro-3,5-dimethyl-2,4′-bipyridin-2′-yl)-2-(4-hydroxypiperidin-1-yl)-7,8-dihydro-pyrido[4,3-d]pyrimidin-5(6H)-one]
3 | > 1000 | Cc1cnc(-c2cc(N3CCc4nc(NC(=O)C(F)(F)F)sc4C3)ncc2Cl)c(C)c1 [Compound A-38, N-(5-(5′-chloro-3,5-dimethyl-2,4′-bipyridin-2′-yl)-4,5,6,7-tetrahydro-thiazolo-[5,4-c]pyridin-2-yl)-2,2,2-trifluoro-acetamide]
4 | 470 | Clc1cnc(N2CCc3nc(NC4CC4)ncc3C2)cc1-c1ccccn1 [Compound A-113, 6-(5′-chloro-2,4′-bipyridin-2′-yl)-N-cyclopropyl-5,6,7,8-tetrahydropyrido-[4,3-d]pyrimidin-2-amine]
5 | 260 | CCNc1nc2c(s1)CN(c1cc(-c3ncc(C)cc3C)c(Cl)cn1)CC2 [Compound A-35, 5-(5′-chloro-3,5-dimethyl-2,4′-bipyridin-2′-yl)-N-ethyl-4,5,6,7-tetrahydro-thiazolo-[5,4-c]pyridin-2-amine]
6 | 85.3 | Cc1cnc(-c2cc(N3CCc4nc(NCC5CC5)ncc4C3)ncc2Cl)c(C)c1 [Compound A-65, 6-(5′-chloro-3,5-dimethyl-2,4′-bipyridin-2′-yl)-N-(cyclopropyl-meth-yl)-5,6,7,8-tetrahydro-pyrido-[4,3-d]pyrimidin-2-amine]
7 | 76 | Cc1cnc(-c2cc(N3CCc4nc(NCC5CC5)ncc4C3=O)ncc2Cl)c(C)c1 [Compound A-104, 6-(5′-chloro-3,5-dimethyl-2,4′-bipyridin-2′-yl)-2-(cyclopro-pylmeth-ylamino)-7,8-dihydro-pyrido[4,3-d]pyrimidin-5(6H)-one]
8 | 11.1 | Cc1cnc(-c2cc(N3CCc4nc(N5CC(C)NC(C)C5)ncc4C3)ncc2Cl)c(C)c1 (stereo not drawn) [Compound A-57, 6-(5′-chloro-3,5-dimethyl-2,4′-bipyridin-2′-yl)-2-(3,5-dimethyl-piperazin-1-yl)-5,6,7,8-tetrahydro-pyrido-[4,3-d]pyrimidine]
9 | 363 | CC(=O)Nc1nc2c(s1)CN(c1cc(-c3ncc(C)cc3C)c(Cl)cn1)CC2 [Compound A-23, N-(5-(5′-chloro-3,5-dimethyl-[2,4′-bipyridin]-2′-yl)-4,5,6,7-tetrahydrothiazolo[5,4-c]pyridin-2-yl)acetamide]
10 | 169 | Clc1cnc(N2CCc3nc(NC4CC4)ncc3C2)cc1-c1nccs1 [Compound A-117, 6-(5-chloro-4-(thiazol-2-yl)pyridin-2-yl)-N-cyclopropyl-5,6,7,8-tetrahydropyrido[4,3-d]pyrimidin-2-amine]
11 | 24.9 | Cc1cnc(-c2cc(N3CCc4nc(N5CCCC5)ncc4C3)ncc2Cl)c(C)c1 [Compound A-53, 6-(5′-chloro-3,5-dimethyl-2,4′-bipyridin-2′-yl)-2-(pyrrolidin-1-yl)-5,6,7,8-tetrahydro-pyrido-[4,3-d]pyrimidine]
12 | > 1000 | Cc1cnc(-c2cc(N3CCn4cc(C(=O)Nc5ccc(F)cc5)nc4C3)ncc2Cl)c(C)c1 [Compound A-21, 7-(5′-chloro-3,5-dimethyl-2,4′-bipyridin-2′-yl)-N-(4-fluorophenyl)-5,6,7,8-tetrahydro-imidazo-[1,2-a]pyrazine-2-carboxamide]
13 | > 1000 | Cc1ccc(-c2cc(N3CCc4nc(NC5CC5)ncc4C3)ncc2Cl)nc1 [Compound A-110, 6-(5′-chloro-5-methyl-2,4′-bipyridin-2′-yl)-N-cyclopropyl-5,6,7,8-tetrahydropyrido-[4,3-d]pyrimidin-2-amine]
14 | 575 | CSc1ncc2c(n1)C(C)CN(c1cc(-c3ncc(C)cc3C)c(Cl)cn1)C2 (stereo not drawn) [Compound A-74, 6-(5′-chloro-3,5-dimethyl-2,4′-bipyridin-2′-yl)-8-methyl-2-(methylthio)-5,6,7,8-tetrahydro-pyrido-[4,3-d]-pyrimidine]
15 | 408 | CCOC(=O)Nc1ncc2c(n1)CCN(c1cc(-c3ncc(C)cc3C)c(Cl)cn1)C2 [Compound A-90, ethyl 6-(5′-chloro-3,5-dimethyl-2,4′-bipyridin-2′-yl)-5,6,7,8-tetrahydropyrido[4,3-d]pyrimidin-2-ylcarbamate]
16 | 676 | Cc1cnc(-c2cc(N3CCn4cc(CN5CCOCC5)nc4C3)ncc2Cl)c(C)c1 [Compound A-11, 4-((7-(5′-chloro-3,5-dimethyl-2,4′-bipyridin-2′-yl)-5,6,7,8-tetrahydroimidazo[1,2-a]pyrazin-2-yl)methyl)morpholine]

Row | IC50 [nM] | Structure (SMILES)
17 | > 1000 | Cc1cnc(-c2cc(N3CCn4cc(NC(=O)C(F)(F)F)nc4C3)ncc2Cl)c(C)c1 [Compound A-12, N-(7-(5′-chloro-3,5-dimethyl-2,4′-bipyridin-2′-yl)-5,6,7,8-tetrahydro-imidazo-[1,2-a]pyrazin-2-yl)-2,2,2-trifluoro-acetamide]
18 | 272 | Cc1cnc(-c2cc(N3CCc4nc(N5CCC(O)C5)ncc4C3=O)ncc2Cl)c(C)c1 (stereo not drawn) [Compound A-105, 6-(5′-chloro-3,5-dimethyl-2,4′-bipyridin-2′-yl)-2-(3-hydroxy-pyrrolidin-1-yl)-7,8-dihydro-pyrido[4,3-d]pyrimidin-5(6H)-one]
19 | 117 | Cc1cnc(-c2cc(N3CCc4nc(NC5CCCC5)ncc4C3)ncc2Cl)c(C)c1 [Compound A-70, 6-(5′-chloro-3,5-dimethyl-2,4′-bipyridin-2′-yl)-N-cyclopentyl-5,6,7,8-tetrahydro-pyrido-[4,3-d]pyrim-idin-2-amine]
20 | 51.1 | Cc1cnc(-c2cc(N3CCc4nc(Nc5ccccc5)ncc4C3)ncc2Cl)c(C)c1 [Compound A-62, 6-(5′-chloro-3,5-dimethyl-2,4′-bipyridin-2′-yl)-N-phenyl-5,6,7,8-tetrahydro-pyrido-[4,3-d]pyrimidin-2-amine]
21 | > 1000 | Cc1cnc(-c2cc(N3CCn4cc(C(=O)Oc5ccccc5)nc4C3)ncc2Cl)c(C)c1 [Compound A-18, phenyl 7-(5′-chloro-3,5-dimethyl-2,4′-bipyridin-2′-yl)-5,6,7,8-tetrahydro-imidazo-[1,2-a]pyrazine-2-carboxylate]
22 | 84 | Cc1cnc(-c2cc(N3CCc4nc(OCC5CC5)ncc4C3)ncc2Cl)c(C)c1 [Compound A-73, 6-(5′-chloro-3,5-dimethyl-2,4′-bipyridin-2′-yl)-2-(cyclopropyl-methoxy)-5,6,7,8-tetrahydro-pyrido-[4,3-d]pyrim-idine]
23 | 565 | Cc1cnc(-c2cc(N3CCc4nc(-n5cccn5)sc4C3)ncc2Cl)c(C)c1 [Compound A-36, 5-(5′-chloro-3,5-dimethyl-2,4′-bipyridin-2′-yl)-2-(1H-pyrazol-1-yl)-4,5,6,7-tetrahydro-thiazolo-[5,4-c]pyridine]
24 | > 1000 | COCC(=O)Nc1cn2c(n1)CN(c1cc(-c3ncc(C)cc3C)c(Cl)cn1)CC2 [Compound A-14, N-(7-(5′-chloro-3,5-dimethyl-2,4′-bipyridin-2′-yl)-5,6,7,8-tetrahydro-imidazo-[1,2-a]pyrazin-2-yl)-2-methoxy-acetamide]
25 | 211 | Cc1cnc(-c2cc(N3CC(C)(C)c4nc(N5CCC(O)CC5)ncc4C3=O)ncc2Cl)c(C)c1 [Compound A-83, 6-(5′-chloro-3,5-dimethyl-2,4′-bipyridin-2′-yl)-2-(4-hydroxy-piperidin-1-yl)-8,8-dimethyl-7,8-dihydro-pyrido[4,3-d] pyrimidin-5(6H)-one]
26 | 24.8 | Cc1cnc(-c2cc(N3CCc4nc(NC5CC5)ncc4C3=O)ncc2Cl)c(C)c1 [Compound A99, 6-(5′-chloro-3,5-dimethyl-2,4′-bipyridin-2′-yl)-2-(cyclopropyl-amino)-7,8-dihydro-pyrido[4,3-d]pyrimidin-5(6H)-one]
27 | 447 | Cc1cnc(-c2cc(N3CCc4nc(N5CC(C)OC(C)C5)sc4C3)ncc2Cl)c(C)c1 (stereo not drawn) [Compound A-33, 4-(5-(5′-chloro-3,5-dimethyl-2,4′-bipyridin-2′-yl)-4,5,6,7-tetrahydro-thiazolo-[5,4-c]pyridin-2-yl)-2,6-dimethyl-morpholine]
28 | 87.6 | CSc1ncc2c(n1)CCN(c1cc(-c3ncc(C)cc3C)c(Cl)cn1)C2 [Compound A-63, 6-(5′-chloro-3,5-dimethyl-2,4′-bipyridin-2′-yl)-2-(methylthio)-5,6,7,8-tetrahydro-pyrido-[4,3-d]pyrimidine]
29 | 257 | Cc1cnc(-c2cc(N3Cc4cnc(NC5CC5)nc4C(C)C3)ncc2Cl)c(C)c1 (stereo not drawn) [Compound A-75, 6-(5′-chloro-3,5-dimethyl-2,4′-bipyridin-2′-yl)-N-cyclopropyl-8-methyl-5,6,7,8-tetrahydro-pyrido-[4,3-d]pyrimidin-2-amine]
30 | 77.1 | Cc1cnc(-c2cc(N3CCc4nc(OC5CCCC5)ncc4C3)ncc2Cl)c(C)c1 [Compound A-71, 6-(5′-chloro-3,5-dimethyl-2,4′-bipyridin-2′-yl)-2-(cyclo-pentyloxy)-5,6,7,8-tetrahydro-pyrido-[4,3-d]pyrim-idine]
31 | 173 | Cc1cnc(-c2cc(N3CCc4nc(NC(=O)CCN(C)C)sc4C3)ncc2Cl)c(C)c1 [Compound A-41, N-(5-(5′-chloro-3,5-dimethyl-2,4′-bipyridin-2′-yl)-4,5,6,7-tetrahydro-thiazolo-[5,4-c]pyridin-2-yl)-3-(dimethyl-amino)-propanamide]

Same assay, conditions: Smo IC50 (nM), confirmation assay; competition with 100 nM bodipy-cyclopamine, Hek293-SMO cells

Row | IC50 [nM] | Structure (SMILES)
32 | 442 | Cc1cnc(-c2cc(N3CCn4cc(C(=O)OCC5CC5)nc4C3)ncc2Cl)c(C)c1 [Compound A16, cyclopro-pylmeth-yl 7-(5′-chloro-3,5-dimethyl-2,4′-bipyridin-2′-yl)-5,6,7,8-tetrahydro-imidazo-[1,2-a]pyrazine-2-carboxylate]

Same assay, conditions: read-out: Kd of bodipy-cyclopamine for WT-Smo; used in the Cheng-Prusoff equation

Row | Structure (SMILES) | Kd [µM]
33 | CC1=C2CC3C(CC=C4C[C@@H](O)CCC43C)C2CCC12O[C@@H]1CC(C)CN(CCNC(=O)CCCCCNC(=O)CCC3=[N+]4C(=Cc5c(C)cc(C)n5[B-]4(F)F)C=C3)C1C2C (stereo partly drawn) [bodipy-cyclopamine, reference compound] | 0.0035 ± 0.0008
